According to patent publication US11603373B2, “TDO2 and IDO1 inhibitors” (Genentech, Inc., priority 2017, dated 2023):

How the values were obtained:
[1] = target: T1, TDO2 (SW48 cells, high TDO expressing cells) (Homo sapiens, UniProt P48775); experiment: NFK GreenScreen cell assay, inhibition of TDO in SW48 cells; assay type: cell-based; conditions: read-out: TDO2 Cell Fluor EC50
T1 construct: SW48 cells (high TDO expressing cells); endogenous in cells; host or cells: SW48 cells
Text: (§1) Cells are counted on a Vi-Cell (Beckman Coulter). […] The final DMSO concentration is 0.5%.

[2] = target: T2, IDO1 (A172+IFNg cells, high IDO expressing cells) (Homo sapiens, UniProt P14902); experiment: NFK GreenScreen cell assay, inhibition of IDO in A172+IFNg cells; assay type: cell-based; conditions: read-out: IDO cell Fluor EC50
T2 construct: A172+IFNg cells (high IDO expressing cells); endogenous in cells; host or cells: A172 cells induced with 100 ng/ml IFNγ
Text: as §1

T2 sequence (P14902 whole entry): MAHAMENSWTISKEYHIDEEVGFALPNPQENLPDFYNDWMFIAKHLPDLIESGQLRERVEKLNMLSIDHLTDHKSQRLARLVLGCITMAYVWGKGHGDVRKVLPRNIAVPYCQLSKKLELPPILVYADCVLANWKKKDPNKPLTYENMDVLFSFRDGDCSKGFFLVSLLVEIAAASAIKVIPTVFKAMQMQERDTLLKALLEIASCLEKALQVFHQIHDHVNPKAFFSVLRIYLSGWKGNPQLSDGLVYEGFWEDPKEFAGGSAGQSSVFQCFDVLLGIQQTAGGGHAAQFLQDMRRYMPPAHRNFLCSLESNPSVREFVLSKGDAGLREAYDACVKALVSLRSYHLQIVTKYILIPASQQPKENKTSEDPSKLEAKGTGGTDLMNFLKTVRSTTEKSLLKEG
T1 sequence (P48775 whole entry): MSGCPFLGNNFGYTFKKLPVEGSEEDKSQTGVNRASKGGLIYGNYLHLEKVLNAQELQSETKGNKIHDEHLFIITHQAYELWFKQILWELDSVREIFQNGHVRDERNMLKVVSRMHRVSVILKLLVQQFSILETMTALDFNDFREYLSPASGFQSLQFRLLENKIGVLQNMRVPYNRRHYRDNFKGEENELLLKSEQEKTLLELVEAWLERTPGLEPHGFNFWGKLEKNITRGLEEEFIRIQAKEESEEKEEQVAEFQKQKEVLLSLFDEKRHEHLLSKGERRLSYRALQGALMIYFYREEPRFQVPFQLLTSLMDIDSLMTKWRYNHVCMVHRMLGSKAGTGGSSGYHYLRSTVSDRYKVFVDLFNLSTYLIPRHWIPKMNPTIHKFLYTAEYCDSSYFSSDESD

SMILES	EC50 [1] [µM]	EC50 [2] [µM]
CP(C)(=O)N1CCC2(CC1)C[C@@H]([C@H]1c3ccccc3-c3cncn31)[C@H]2O (single isomer, unassigned) [Example 15b]	1.5	1.1
O=S(=O)(CF)N1CCC2(CC1)C[C@H]([C@@H]1c3ccccc3-c3cncn31)[C@@H]2O (single isomer, unassigned) [Example 8a]	15	17
O=C(CN1CCCCC1=O)N1CCC2(CC1)CC(C1c3ccccc3-c3cncn31)C2O (stereo not drawn) [compound 39, 1-[2-[3-hydroxy-2-(5H-imidazo[1,5-b]isoindol-5-yl)-7-azaspiro[3.5]nonan-7-yl]-2-oxo-ethyl]piperidin-2-one]	3.9	3.3
CC(NC=O)C(=O)N1CCC2(CC1)CC(C1c3ccccc3-c3cncn31)C2O (stereo not drawn) [compound 42, N-[2-[3-hydroxy-2-(5H-imidazo[1,5-b]isoindol-5-yl)-7-azaspiro[3.5]nonan-7-yl]-1-methyl-2-oxo-ethyl]formamide]	4.1	1.1
COC(=O)N1CCC2(CC[C@@H]([C@H]3c4ccccc4-c4cncn43)[C@H]2O)CC1 (single isomer, unassigned) [Example 9a]	21	18
CC(C)(C)OC(=O)N1[C@@H]2CC[C@H]1C[C@@]1(C[C@H]([C@H]3c4ccccc4-c4cncn43)[C@@H]1O)C2 (single isomer, unassigned) [Example 12k]	15	13
CS(=O)(=O)N1CCC2(CC1)C[C@@H]([C@@H]1c3ccccc3-c3cncn31)[C@H]2O (single isomer, unassigned) [Example 6e]	6.8	3.2
CN1C(=O)Cc2cc(S(=O)(=O)N3CCC4(CC3)CC(C3c5ccccc5-c5cncn53)C4O)ccc21 (stereo not drawn) [compound 37, 5-[[3-hydroxy-2-(5H-imidazo[1,5-b]isoindol-5-yl)-7-azaspiro[3.5]nonan-7-yl]sulfonyl]-1-methyl-indolin-2-one]	1.1	0.23
NC(=O)N1CCC(C(=O)N2CCC3(CC2)CC(C2c4ccccc4-c4cncn42)C3O)CC1 (stereo not drawn) [compound 66, 4-[3-hydroxy-2-(5H-imidazo[1,5-b]isoindol-5-yl)-7-azaspiro[3.5]nonane-7-carbonyl]piperidine-1-carboxamide]	14	13
O=C(C1CCS(=O)(=O)C1)N1CCC2(CC1)C[C@@H]([C@H]1c3ccccc3-c3cncn31)[C@H]2O (stereo partly drawn) [compound 65, (1,1-dioxothiolan-3-yl)-[3-hydroxy-2-(5H-imidazo[1,5-b]isoindol-5-yl)-7-azaspiro[3.5]nonan-7-yl]methanone]	9	6.3
NC(=O)N1CCCC(C(=O)N2CCC3(CC2)CC(C2c4ccccc4-c4cncn42)C3O)C1 (stereo not drawn) [compound 64, 3-[3-hydroxy-2-(5H-imidazo[1,5-b]isoindol-5-yl)-7-azaspiro[3.5]nonane-7-carbonyl]piperidine-1-carboxamide]	13	17
NS(=O)(=O)N1CCC2(CC1)C[C@H]([C@H]1c3ccccc3-c3cncn31)[C@H]2O (single isomer, unassigned) [Example 11g]	0.93	4.7
CC(C(=O)N1CCC2(CC1)C[C@@H]([C@H]1c3ccccc3-c3cncn31)[C@H]2O)n1cncn1 (stereo partly drawn) [compound 41, 1-[3-hydroxy-2-(5H-imidazo[1,5-b]isoindol-5-yl)-7-azaspiro[3.5]nonan-7-yl]-2-(1,2,4-triazol-1-yl)propan-1-one]	3.4	1.5
CC(C)(C)OC(=O)N1CCC2(CC1)C[C@H](C1c3ccccc3-c3cncn31)[C@@H]2O (single isomer, unassigned) [Example 1a]	6.3	4.3
Cc1noc(C)c1S(=O)(=O)N1CCC2(CC1)C[C@@H]([C@H]1c3ccccc3-c3cncn31)[C@H]2O [compound 31]	2.2	0.15
CC(C)(C)OC(=O)N1CCC2(CC[C@H]([C@@H]3c4ccccc4-c4cncn43)[C@@H]2O)CC1 (single isomer, unassigned) [Example 2d]	3.7	1.6
CS(=O)(=O)N1CCC2(CC1)C[C@H]([C@H]1c3ccccc3-c3cncn31)[C@@H]2O (single isomer, unassigned) [Example 6f]	0.12	0.024
CC(C)(C)OC(=O)N1[C@@H]2CC[C@H]1C[C@]1(C[C@H]([C@@H]3c4ccccc4-c4cncn43)[C@H]1O)C2 (single isomer, unassigned) [Example 12g]	2.1	4.7
O=C(C1CCC1)N1CCC2(CC1)C[C@@H]([C@H]1c3ccccc3-c3cncn31)[C@H]2O [compound 48, cyclobutyl-[3-hydroxy-2-(5H-imidazo[1,5-b]isoindol-5-yl)-7-azaspiro[3.5]nonan-7-yl]methanone]	0.73	0.35
O=C(OCC(F)F)N1CCC2(CCC(C3c4ccccc4-c4cncn43)C2O)CC1 (single isomer, unassigned) [compound 60, 2,2-difluoroethyl 1-hydroxy-2-(5H-imidazo[5,1-a]isoindol-5-yl)-8-azaspiro[4.5]decane-8-carboxylate]	0.056	0.04
CC(C)(C)OC(=O)N1[C@@H]2CC[C@H]1C[C@@]1(C[C@H]([C@@H]3c4ccccc4-c4cncn43)[C@@H]1O)C2 (single isomer, unassigned) [Example 12i]	13	5.8
O=S(=O)(C(F)F)N1CCC2(CC1)C[C@@H]([C@H]1c3ccccc3-c3cncn31)[C@H]2O (single isomer, unassigned) [Example 14b]	0.13	0.068
CC(C)(C)OC(=O)N1[C@@H]2CC[C@H]1C[C@]1(C[C@@H]([C@@H]3c4ccccc4-c4cncn43)[C@H]1O)C2 (single isomer, unassigned) [Example 12l]	0.41	12
Cn1ccc(S(=O)(=O)N2CCC3(CC2)CC(C2c4ccccc4-c4cncn42)C3O)n1 (stereo not drawn) [compound 44, 2-(5H-imidazo[1,5-b]isoindol-5-yl)-7-(1-methylpyrazol-3-yl)sulfonyl-7-azaspiro[3.5]nonan-3-ol]	0.28	0.082
CS(=O)(=O)N1CCC2(CC1)C[C@@H]([C@H]1c3ccccc3-c3cncn31)[C@@H]2O (single isomer, unassigned) [Example 6d]	0.54	9.3
CC(C)(C)OC(=O)N1[C@@H]2CC[C@H]1C[C@@]1(C[C@@H]([C@H]3c4ccccc4-c4cncn43)[C@H]1O)C2 (single isomer, unassigned) [Example 12b]	21	8.1
CN1CCC(C(=O)N2CCC3(CC2)CC(C2c4ccccc4-c4cncn42)C3O)CC1=O (stereo not drawn) [compound 40, 4-[3-hydroxy-2-(5H-imidazo[1,5-b]isoindol-5-yl)-7-azaspiro[3.5]nonane-7-carbonyl]-1-methyl-piperidin-2-one]	9.2	7
NS(=O)(=O)N1CCC2(CC1)C[C@H]([C@H]1c3ccccc3-c3cncn31)[C@@H]2O (single isomer, unassigned) [Example 11f]	0.182	0.0585

More lines, now with the values ahead:

EC50 [1] [µM]	EC50 [2] [µM]	SMILES
5	12	CC(C)(C)OC(=O)N1CC2CCC(C1)C21C[C@@H]([C@H]2c3ccccc3-c3cncn32)[C@H]1O (single isomer, unassigned) [Example 22b]
0.16	0.041	CC(C)(C)OC(=O)N1CC2CCC(C1)C21C[C@H]([C@@H]2c3ccccc3-c3cncn32)[C@H]1O (stereo partly drawn) [Example 22g, tert-butyl (2′R,3′R)-2′-hydroxy-3′-((R)-5H-imidazo[5,1-a]isoindol-5-yl)-3-azaspiro[bicyclo[3.2.1]octane-8,1-cyclobutane]-3-carboxylate]
0.081	0.034	O=C([C@@H]1CC1(F)F)N1CCC2(CC[C@@H]([C@H]3c4ccccc4-c4cncn43)[C@H]2O)CC1 (single isomer, unassigned) [Example 25a]
0.73	5.2	CC(C)(C)OC(=O)N[C@H]1CC[C@]2(CC1)C[C@H]([C@@H]1c3ccccc3-c3cncn31)[C@H]2O (single isomer, unassigned) [Example 24c]
8.6	1.9	CC(C)(C)OC(=O)N[C@H]1CC[C@@]2(CC1)C[C@@H]([C@H]1c3ccccc3-c3cncn31)[C@H]2O (single isomer, unassigned) [Example 24l]
14	5	CC(C)(C)OC(=O)N[C@H]1CC[C@@]2(CC1)C[C@H](C1c3ccccc3-c3cncn31)[C@H]2O (stereo partly drawn) [Example 24k, tert-butyl ((1S,2S,4s,7R)-1-hydroxy-2-((S)-5H-imidazo[5,1-a]isoindol-5-yl)spiro[3.5]nonan-7-yl)carbamate]
1.1	0.24	CC(C)(C)OC(=O)N[C@H]1CC[C@]2(CC1)C[C@H]([C@H]1c3ccccc3-c3cncn31)[C@@H]2O (single isomer, unassigned) [Example 24n]
3.3	0.92	CC(C)(C)OC(=O)N[C@H]1CC[C@@]2(CC1)C[C@H]([C@@H]1c3ccccc3-c3cncn31)[C@@H]2O (single isomer, unassigned) [Example 24p]
2.5	1.1	CC(C)(C)OC(=O)N[C@H]1CC[C@@]2(CC1)C[C@@H]([C@@H]1c3ccccc3-c3cncn31)[C@H]2O (single isomer, unassigned) [Example 24d]
16	5.4	CC(C)(C)OC(=O)N[C@H]1CC[C@]2(CC1)C[C@@H]([C@@H]1c3ccccc3-c3cncn31)[C@@H]2O (single isomer, unassigned) [Example 24h]
0.15	0.16	O=C([C@H]1CC1(F)F)N1CCC2(CC[C@@H]([C@H]3c4ccccc4-c4cncn43)[C@H]2O)CC1 (single isomer, unassigned) [Example 25b]
